# What was measured:
# [1] = target: T1, CYP2C9 (Homo sapiens, UniProt P11712); test: CYP inhibition assay; type: in vitro ADME; conditions: human liver microsomes
# T1 construct: tissue Corning 452117; host or cells: pooled human liver microsomes (UltraPool HLM 150, mixed gender)
# [2] = target: FGFR1 (Homo sapiens, UniProt P11362); conditions: 1 μM; Run 1, Run 2
# [3] = target: T2, MEK3 (Homo sapiens, UniProt P46734); conditions: 1 μM; Run 1, Run 2
# T2 sequence (P46734 1-347): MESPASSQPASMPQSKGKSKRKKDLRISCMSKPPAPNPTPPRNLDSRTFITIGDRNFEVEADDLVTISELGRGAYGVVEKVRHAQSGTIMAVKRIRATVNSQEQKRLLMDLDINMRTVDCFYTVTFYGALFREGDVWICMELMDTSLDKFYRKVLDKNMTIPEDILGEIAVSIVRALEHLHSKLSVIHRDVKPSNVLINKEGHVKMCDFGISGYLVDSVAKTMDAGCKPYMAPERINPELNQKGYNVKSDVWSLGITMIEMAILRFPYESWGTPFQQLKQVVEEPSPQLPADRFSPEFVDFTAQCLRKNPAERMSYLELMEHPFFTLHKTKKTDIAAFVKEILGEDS
# [4] = target: T3, MAPKAPK5/PRAK (Homo sapiens, UniProt Q8IW41); test: biochemical; conditions: read-out: % enzyme activity, 1 μM; Run 1, Run 2
# T3 sequence (Q8IW41 1-473): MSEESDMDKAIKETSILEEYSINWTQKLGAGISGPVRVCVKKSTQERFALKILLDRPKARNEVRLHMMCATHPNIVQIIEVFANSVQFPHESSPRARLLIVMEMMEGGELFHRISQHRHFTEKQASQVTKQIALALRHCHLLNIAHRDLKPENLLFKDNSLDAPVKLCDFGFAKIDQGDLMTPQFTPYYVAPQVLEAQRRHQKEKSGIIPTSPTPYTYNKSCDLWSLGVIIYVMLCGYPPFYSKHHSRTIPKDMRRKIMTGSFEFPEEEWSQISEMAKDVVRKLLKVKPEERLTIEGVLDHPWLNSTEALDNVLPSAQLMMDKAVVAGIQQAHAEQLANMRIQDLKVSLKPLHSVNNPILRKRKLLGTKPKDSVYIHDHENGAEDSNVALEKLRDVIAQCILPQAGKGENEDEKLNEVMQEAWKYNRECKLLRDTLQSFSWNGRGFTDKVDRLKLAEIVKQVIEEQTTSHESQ
# [5] = target: T4, TLK1 (Homo sapiens, UniProt Q9UKI8); conditions: 1 μM; Run 1, Run 2
# T4 sequence (Q9UKI8 1-766): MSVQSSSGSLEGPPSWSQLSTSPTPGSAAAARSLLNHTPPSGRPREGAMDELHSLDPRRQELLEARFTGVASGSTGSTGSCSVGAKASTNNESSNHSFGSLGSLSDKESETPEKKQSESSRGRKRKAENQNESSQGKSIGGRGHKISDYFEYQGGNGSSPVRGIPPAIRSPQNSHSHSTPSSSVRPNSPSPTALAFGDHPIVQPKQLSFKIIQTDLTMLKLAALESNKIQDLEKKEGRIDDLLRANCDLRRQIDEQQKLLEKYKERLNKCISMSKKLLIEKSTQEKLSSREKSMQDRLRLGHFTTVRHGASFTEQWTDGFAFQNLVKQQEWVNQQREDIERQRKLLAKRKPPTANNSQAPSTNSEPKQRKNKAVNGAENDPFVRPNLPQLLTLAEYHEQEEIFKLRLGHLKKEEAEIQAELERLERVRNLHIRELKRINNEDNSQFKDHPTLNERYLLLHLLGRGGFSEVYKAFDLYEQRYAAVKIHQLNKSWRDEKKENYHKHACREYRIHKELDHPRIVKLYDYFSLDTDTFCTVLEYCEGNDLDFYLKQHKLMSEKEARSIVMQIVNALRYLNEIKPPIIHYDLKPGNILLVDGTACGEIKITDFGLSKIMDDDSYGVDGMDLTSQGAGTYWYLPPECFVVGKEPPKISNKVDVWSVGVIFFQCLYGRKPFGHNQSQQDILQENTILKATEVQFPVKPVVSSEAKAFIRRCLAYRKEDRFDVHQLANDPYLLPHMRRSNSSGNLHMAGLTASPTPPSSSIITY
# [6] = target: SIK1 (Homo sapiens, UniProt P57059); test: biochemical; conditions: read-out: % enzyme activity, 1 μM; Run 1, Run 2
# SIK1, sequence (P57059 whole entry): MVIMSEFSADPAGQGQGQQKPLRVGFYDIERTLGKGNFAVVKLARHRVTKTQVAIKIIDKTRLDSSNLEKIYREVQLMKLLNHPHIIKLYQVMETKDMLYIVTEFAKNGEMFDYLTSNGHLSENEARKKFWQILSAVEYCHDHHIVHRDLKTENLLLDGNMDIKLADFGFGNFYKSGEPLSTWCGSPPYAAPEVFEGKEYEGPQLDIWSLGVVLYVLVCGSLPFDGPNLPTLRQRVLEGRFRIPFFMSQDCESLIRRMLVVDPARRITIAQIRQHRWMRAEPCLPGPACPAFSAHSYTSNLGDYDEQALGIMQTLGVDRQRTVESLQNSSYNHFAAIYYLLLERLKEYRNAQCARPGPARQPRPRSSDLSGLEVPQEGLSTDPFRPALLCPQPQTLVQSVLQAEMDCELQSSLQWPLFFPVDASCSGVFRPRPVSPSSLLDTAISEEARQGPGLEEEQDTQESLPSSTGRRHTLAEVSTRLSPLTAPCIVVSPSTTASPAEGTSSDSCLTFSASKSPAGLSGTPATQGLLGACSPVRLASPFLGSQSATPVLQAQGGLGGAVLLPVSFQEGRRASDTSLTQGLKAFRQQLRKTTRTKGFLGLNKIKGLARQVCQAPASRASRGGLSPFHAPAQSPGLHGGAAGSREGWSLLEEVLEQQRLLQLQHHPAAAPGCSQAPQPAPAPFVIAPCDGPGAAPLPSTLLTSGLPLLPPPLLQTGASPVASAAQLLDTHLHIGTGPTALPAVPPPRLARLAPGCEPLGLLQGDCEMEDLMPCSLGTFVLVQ
# FGFR1, sequence (P11362 22-822): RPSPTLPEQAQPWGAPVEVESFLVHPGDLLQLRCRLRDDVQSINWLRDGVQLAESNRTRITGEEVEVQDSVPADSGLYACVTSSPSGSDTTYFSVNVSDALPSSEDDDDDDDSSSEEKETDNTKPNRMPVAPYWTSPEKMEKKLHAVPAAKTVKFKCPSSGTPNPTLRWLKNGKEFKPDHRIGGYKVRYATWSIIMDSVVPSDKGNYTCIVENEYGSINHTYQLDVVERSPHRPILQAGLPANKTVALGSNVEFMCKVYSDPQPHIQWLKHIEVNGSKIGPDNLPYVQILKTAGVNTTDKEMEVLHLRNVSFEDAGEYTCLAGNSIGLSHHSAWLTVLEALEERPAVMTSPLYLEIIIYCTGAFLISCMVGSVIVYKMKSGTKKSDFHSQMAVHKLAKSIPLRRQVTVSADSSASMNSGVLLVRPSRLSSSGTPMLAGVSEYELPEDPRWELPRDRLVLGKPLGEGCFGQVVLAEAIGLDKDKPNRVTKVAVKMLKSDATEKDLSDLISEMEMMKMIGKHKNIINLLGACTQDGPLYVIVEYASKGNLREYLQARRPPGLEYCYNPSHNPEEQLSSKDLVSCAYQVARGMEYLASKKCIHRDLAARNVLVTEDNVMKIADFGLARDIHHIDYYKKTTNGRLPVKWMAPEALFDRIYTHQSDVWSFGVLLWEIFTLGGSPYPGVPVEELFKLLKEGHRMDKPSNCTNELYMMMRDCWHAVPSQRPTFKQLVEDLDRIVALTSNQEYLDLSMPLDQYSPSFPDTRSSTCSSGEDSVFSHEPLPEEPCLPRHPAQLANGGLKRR
# T1 sequence (P11712 whole entry): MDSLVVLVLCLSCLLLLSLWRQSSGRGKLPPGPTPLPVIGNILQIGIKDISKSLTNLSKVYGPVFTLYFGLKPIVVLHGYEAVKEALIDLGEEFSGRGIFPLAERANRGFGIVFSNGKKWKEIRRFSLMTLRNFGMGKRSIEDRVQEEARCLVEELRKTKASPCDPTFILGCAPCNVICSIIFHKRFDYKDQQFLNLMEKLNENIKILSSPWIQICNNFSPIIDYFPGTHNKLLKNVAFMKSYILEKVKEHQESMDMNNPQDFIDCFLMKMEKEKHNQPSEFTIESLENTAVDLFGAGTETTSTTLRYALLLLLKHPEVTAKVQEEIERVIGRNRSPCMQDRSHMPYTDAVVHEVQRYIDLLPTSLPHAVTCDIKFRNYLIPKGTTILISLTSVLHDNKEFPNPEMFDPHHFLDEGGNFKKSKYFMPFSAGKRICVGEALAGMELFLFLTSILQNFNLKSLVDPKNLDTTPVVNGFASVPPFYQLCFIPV
Compound,IC50 [1] [µM],% enzyme activity [2] [%],% enzyme activity [3] [%],remaining activity at 1 µM [4] [%],% enzyme activity [5] [%],remaining activity at 1 µM [6] [%]
"COc1cc(-c2cncc(-c3ccc(N4C[C@@H](C)N(C)[C@@H](C)C4)cc3)c2C)cc(F)c1C(N)=O [Compound 26c, 2-Fluoro-6-methoxy-4-(4-methyl-5-(4-((3R,5S)-3,4,5-trimethylpiperazin-1-yl)phenyl)pyridin-3-yl)benzamide]",> 50,99.91,101.33,94.7,100.84,93.8
"COc1cc(-c2cncc(-c3ccc(N4CCN(C)CC4)cc3)c2C)cc(F)c1C(N)=O [Compound 26a, 2-Fluoro-6-methoxy-4-(4-methyl-5-(4-(4-methylpiperazin-1-yl)phenyl)pyridin-3-yl)benzamide]",> 50,96.52,100.94,93.2,107.91,82.9
